Where a SMILES comes first, the peptide text is derived from it.
Columns and labels:
[1] = system: human iPSC-CM (iCell Cardiomyocytes); experiment: Dose-response cell viability (CellTiter-Fluor) in iPSC-derived cardiomyocytes, maximum acceptable viability exposure; type: cell-based
Experimental: Metabolomic data was acquired to identify non-cytotoxic exposure levels and identify biomarkers of cardiotoxicity from a dose-response experiment using spent medium of iPSC-CM treated with 53 of the compounds in the training set. Briefly, human iPSC-CM (iCell® Cardiomyocytes, cat #R1007, Cellular Dynamics International) were exposed to eight concentrations of each training set compound. Spent media was collected for LC-MS analysis and cell viability was assessed with the CellTiter-Fluor Cell Viability Assay (Promega). Spent media samples were prepared and analyzed using the methods developed in Specific Aim 1. The spent media samples from iPSC-CM treated with 10 representative cardiotoxic and non-cardiotoxic compounds were analyzed with all four LC-MS methods to rank biological significant secretome features by predictive capacity. […]
The goal of the concentration-response phase of biomarker identification was to identify non-cytotoxic exposure levels that change iPSC-CM metabolism. The method included modeling feature response, calculating maximum acceptable viability (MAVE), determining response at Cmax, and MAVE, reviewing the top 4 responding features, and selecting the highest tested exposure with 90% viability.

[2] = therapeutic total Cmax; cited from earlier work

Row | Structure (SMILES) | MAVE (Maximum Acceptable Viability Exposure) ([1]; human) [µM] | Cmax Total [2] [nM] | MAVE (Maximum Acceptable Viability Exposure) ([1]; highest exposure tested with ≥90% viability, iPSC-CM, eight concentrations) [µM]
1 | Nc1nc2c(ncn2COCCO)c(=O)[nH]1 [Acyclovir] | 100 | 6700 | –
2 | CN(C)CCC=C1c2ccccc2CCc2ccccc21 [Amitriptyline] | 1 | 950 | –
3 | CC1(C)S[C@@H]2[C@H](NC(=O)[C@H](N)c3ccc(O)cc3)C(=O)N2[C@H]1C(=O)O [Amoxicillin] | 100 | 17000 | –
4 | C[C@@H]1[C@H](O)[C@@H](C)/C=C/C=C/C=C/C=C/C=C/C=C/C=C/[C@H](O[C@@H]2O[C@H](C)[C@@H](O)[C@H](N)[C@@H]2O)C[C@@H]2O[C@](O)(C[C@@H](O)C[C@@H](O)[C@H](O)CC[C@@H](O)C[C@@H](O)CC(=O)O[C@H]1C)C[C@H](O)[C@H]2C(=O)O [Amphotericin B] | – | 89800 | 3
5 | O=C1CN2Cc3c(ccc(Cl)c3Cl)N=C2N1 [Anagrelide] | 30 | 60 | –
6 | O=C1O[C@H]([C@@H](O)CO)C(O)=C1O [Ascorbic Acid] | 100 | 36000 | –
7 | COC(=O)[C@H](Cc1ccccc1)NC(=O)[C@@H](N)CC(=O)O [Aspartame] (H-Asp-Phe-OMe) | 100 | 1000 | –
8 | COc1ccc(CCN2CCC(Nc3nc4ccccc4n3Cc3ccc(F)cc3)CC2)cc1 [Astemizole] | 3 | 8 | –
9 | O=C(O)c1ccccc1 [Benzoic Acid] | 100 | 36000 | –
10 | O=C(O)CCCC[C@@H]1SC[C@@H]2NC(=O)N[C@@H]21 [Biotin] | 100 | 10 | –
11 | CC(C)C[C@H](NC(=O)[C@H](Cc1ccccc1)NC(=O)c1cnccn1)B(O)O [Bortezomib] | 0.1 | 300 | –
12 | CCN(CC)CCCC(C)Nc1ccnc2cc(Cl)ccc12 (centres unmarked) [Chloroquine] | 3 | 960 | –
13 | COc1cc(N)c(Cl)cc1C(=O)NC1CCN(CCCOc2ccc(F)cc2)CC1OC (centres unmarked) [Cisapride] | 100 | 180 | –
14 | O=C(O)CC(O)(CC(=O)O)C(=O)O [Citric Acid] | 100 | 128000 | –
15 | CN1CCN(C2=Nc3cc(Cl)ccc3Nc3ccccc32)CC1 [Clozapine] | 10 | 950 | –
16 | Cc1ccc(NC(=O)c2ccc(CN3CCN(C)CC3)cc2)cc1Nc1nccc(-c2cccnc2)n1 [Imatinib] | 3 | – | –
17 | CC(C)C[C@H](N)C(=O)O [Leucine] | 100 | – | –
18 | O=C1c2c(O)ccc(O)c2C(=O)c2c(NCCNCCO)ccc(NCCNCCO)c21 [Mitoxantrone] | 1 | – | –
19 | C[C@@H]1C/C=C/C=C/C=C/C=C/[C@H](O[C@@H]2O[C@H](C)[C@@H](O)[C@H](N)[C@@H]2O)C[C@@H]2O[C@](O)(C[C@@H](O)C[C@H]3O[C@@H]3/C=C/C(=O)O1)C[C@H](O)[C@H]2C(=O)O [Natamycin] | 30 | – | –
20 | CC(=O)O[C@H]1C(=O)[C@@]2(C)[C@H]([C@H](OC(=O)c3ccccc3)[C@]3(O)C[C@H](OC(=O)[C@H](O)[C@@H](NC(=O)c4ccccc4)c4ccccc4)C(C)=C1C3(C)C)[C@]1(OC(C)=O)CO[C@@H]1C[C@@H]2O [Paclitaxel] | 0.03 | – | –
21 | CNC(=O)c1cc(Oc2ccc(NC(=O)Nc3ccc(Cl)c(C(F)(F)F)c3)cc2)ccn1 [Sorafenib] | 3 | – | –
22 | O=C(O)C(O)C(O)C(=O)O (centres unmarked) [Tartaric Acid] | 100 | – | –
23 | CSc1ccc2c(c1)N(CCC1CCCCN1C)c1ccccc1S2 (centres unmarked) [Thioridazine] | 1 | – | –

Source: US20250264459A1, “IN VITRO ASSAY TO PREDICT CARDIOTOXICITY” (Stemina Biomarker Discovery, Inc., priority 2018, published 2025)
